Results as given in US8552049B2, “Pyrazolecarboxamide derivatives and their use as microbiocides” (Syngenta Corp Protection, LLC, priority 2010, dated 2013).

Columns and labels:
Botrytis cinerea = test: Action against Botrytis cinerea - fungal growth assay; type: cell-based; conditions: 0.002% active ingredient, PDB nutrient broth, 24° C., photometrically after 3-4 days
Description: (§1) Action Against Botrytis cinerea—Fungal Growth Assay Conidia of the fungus from cryogenic storage was directly mixed into nutrient broth (PDB potato dextrose broth). After placing a (DMSO) solution of the test compounds (0.002% active ingredient) into a microtiter plate (96-well format) the nutrient broth containing the fungal spores was added. The test plates were incubated at 24° C. and the inhibition of growth was measured photometrically after 3-4 days. The activity of a compound was expressed as fungal growth inhibition (0=no growth inhibition, ratings of 80% to 99% mean good to very good inhibition, 100%=complete inhibition). Compounds 1.003 and 1.004 show very good activity in this test (≧80% inhibition).

Mycosphaerella arachidis = test: Action against Mycosphaerella arachidis (early leaf spot of groundnut) - fungal growth assay; type: cell-based; conditions: 0.002% active ingredient, PDB nutrient broth, 24° C., photometrically after 6-7 days
Description: as §1, with “Against Mycosphaerella arachidis (Early Leaf Spot of Groundnut; Cercospora arachidicola [Anamorph])—Fungal” for “Against Botrytis cinerea—Fungal”, “storage were” for “storage was”, “after 6-7” for “after 3-4”

[1] = test system: Erysiphe graminis f.sp. tritici; test: Action against Erysiphe graminis f.sp. tritici (wheat powdery mildew), wheat leaf segments; type: in vivo; conditions: Blumeria graminis, foliar, 168 h; wheat leaf segments sprayed with 0.02% active ingredient, assessed 7 days after inoculation; read-out: preventive fungicidal activity (inhibition)
Description: (§2) Action Against Erysiphe graminis f.sp. tritici (Wheat Powdery Mildew) Wheat leaf segments were placed on agar in multiwell plates (24-well format) and sprayed with test solutions (0.02% active ingredient). After drying, the leaf disks were inoculated with a spore suspension of the fungus. After appropriate incubation the activity of a compound was assessed 7 days after inoculation as preventive fungicidal activity.

Septoria tritici = test: Action against Septoria tritici - fungal growth assay; type: cell-based; conditions: Zymoseptoria tritici; 0.002% active ingredient, PDB nutrient broth, 24° C., photometrically after 72 hrs
Description: as §1, with “Against Septoria tritici—Fungal” for “Against Botrytis cinerea—Fungal”, “storage were” for “storage was”, “was determined” for “was measured”, “after 72 hrs.” for “after 3-4 days.”, “inhibition).” for “inhibition). Compounds 1.003 and 1.004 show very good activity in this test (≧80% inhibition).”

Puccinia recondita [2] = test: Protective action against Puccinia recondita (brown rust) on wheat leaf segments; type: in vivo; conditions: foliar, 192 h, wheat leaf segments sprayed with 0.02% active ingredient, assessed 8 days after inoculation, read-out: preventive fungicidal activity (inhibition)
Description: as §2, with “Protective Action” for “Action”, “Puccinia recondita (Brown Rust) on Wheat” for “Erysiphe graminis f.sp. tritici (Wheat Powdery Mildew)”, “8” for “7”

Puccinia recondita [3] = test: Curative action against Puccinia recondita (brown rust) on wheat leaf segments; type: in vivo; conditions: foliar, wheat leaf segments sprayed with 0.02% active ingredient one day after inoculation, assessed 8 days after inoculation, read-out: curative fungicidal activity (inhibition)
Description: Curative Action Against Puccinia recondita (Brown Rust) on Wheat Wheat leaf segments were placed on agar in multiwell plates (24-well format) and inoculated with a spore suspension of the fungus. One day after inoculation the leaf segments were sprayed with test solutions (0.02% active ingredient). After appropriate incubation the activity of a compound was assessed 8 days after inoculation as curative fungicidal activity.

Monographella nivalis = test: Action against Monographella nivalis (snow mould) - fungal growth assay; type: cell-based; conditions: 0.002% active ingredient, PDB nutrient broth, 24° C., photometrically after 72 hrs
Description: Action Against Monographella nivalis (Anamorph: Fusarium nivale, Microdochium nivale; Snow Mould)—Fungal Growth Assay Conidia of the fungus from cryogenic storage were directly mixed into nutrient broth (PDB potato dextrose broth). After placing a DMSO-solution of the test compounds (0.002% active ingredient) into a microtiter plate (96-well format) the nutrient broth containing the fungal spores was added. The test plates were incubated at 24° C. and the inhibition of growth was measured photometrically after 72 hrs (0=no growth inhibition, ratings of 80% to 99% mean good to very good inhibition, 100%=complete inhibition).

Pyrenophora teres = test: Action against Pyrenophora teres (net blotch) on barley leaf segments; type: in vivo; conditions: foliar, 96 h, barley leaf segments sprayed with 0.02% active ingredient, assessed 4 days after inoculation, read-out: preventive fungicidal activity (inhibition)
Description: as §2, with “Pyrenophora teres (Net Blotch) on Barley Barley” for “Erysiphe graminis f.sp. tritici (Wheat Powdery Mildew) Wheat”, “4” for “7”, “activity. Compounds 1.003 and 1.004 show very good activity in this test (≧80% inhibition).” for “activity.”

SMILES | inhibition at 0.002 % strength (Botrytis cinerea) | inhibition at 0.002 % strength (Mycosphaerella arachidis) | inhibition at 0.02 % strength [1] | inhibition at 0.002 % strength (Septoria tritici) | inhibition at 0.02 % strength (Puccinia recondita [2]) | inhibition at 0.02 % strength (Puccinia recondita [3]) | inhibition at 0.002 % strength (Monographella nivalis) | inhibition at 0.02 % strength (Pyrenophora teres) | melting point
CON(C(=O)c1cn(C)nc1C(F)F)C(CF)Cc1ccc(Cl)cc1Cl (stereo not drawn) [Compound 1.003, 3-difluoromethyl-1-methyl-1H-pyrazole-4-carboxylic acid [2-(2,4-dichloro-phenyl)-1-fluoromethyl-ethyl]-methoxy-amide] | ≥ 80% | ≥ 80% | ≥ 80% | ≥ 80% | ≥ 80% | ≥ 80% | ≥ 80% | ≥ 80% | 
CON(C(=O)c1cn(C)nc1C(F)F)C(CF)Cc1c(Cl)cc(Cl)cc1Cl (stereo not drawn) [Compound 1.004, 3-difluoromethyl-1-methyl-1H-pyrazole-4-carboxylic acid [1-fluoromethyl-2-(2,4,6-trichlorophenyl)-ethyl]-methoxy-amide] | ≥ 80% | ≥ 80% | ≥ 80% | ≥ 80% | ≥ 80% | ≥ 80% | ≥ 80% | ≥ 80% | 117 to 118 °C
CON(C(=O)c1cn(C)nc1C(F)(F)F)C(CF)Cc1c(Cl)cc(Cl)cc1Cl (stereo not drawn) [Compound 3.004, 1-methyl-3-trifluoromethyl-1H-pyrazole-4-carboxylic acid [1-fluoromethyl-2-(2,4,6-trichlorophenyl)-ethyl]-methoxy-amide] |  |  |  |  |  |  |  |  | 131 to 133 °C
